Experimental data taken from US20260226493A1, “HERBICIDE RESISTANT PLANTS” (SYNGENTA CROP PROTECTION AG, priority 2023, published 2026).

Tests used:
[1] = target: T1, Arabidopsis thaliana BioDA variant enzymes (Arabidopsis thaliana, UniProt B0F481, C388D); assay: biochemical
T1 construct: with the predicted N-terminal mitochondrial transit peptide removed; 6xHis-tag (N); thrombin cleavage site (N); made in house; host or cells: E. coli BL21 (DE3) bioA
Description: (§1) These plasmids were then expressed in E. coli BL21 (DE3) bioA with 50 μg/mL kanamycin and 25 μg/mL chloramphenicol selection. Overnight cultures grown at 37° C. were used to inoculate 8×500 mL AIM in shake flasks at a ratio of 1:100. Cultures were grown at 37° C., 200 rpm for 3.5 hours and then overnight at 20° C. Cells were harvested by centrifugation for 30 minutes at 10 000 g. Cells were stored at −80° C. until extraction. 30 g of cell pellet from was thawed in 120 mL of IMAC buffer A (20 mM HEPES pH7.5, 25 mM imidazole, 500 mM sodium chloride, 0.15 mM pyridoxal phosphate, 0.5 mM TCEP, 1× complete Protease Inhibitor Tablet (Roche)). The resuspension was passed through a cell disrupter at 18 000 PSI and centrifuged at 50 000 g for 25 minutes at 4° C. The His-tagged BIO3-BIO1 protein was purified from the extract supernatant on an AKTA avant chromatography system (Cytiva) using a HisTrap FF column and eluted in IMAC buffer B ((20 mM HEPES pH7.5, 500 mM imidazole, 500 mM sodium chloride, 0.15 mM pyridoxal phosphate, 0.5 mM TCEP) followed by SEC using a HiLoad 26/60 Superdex200 column in SEC buffer (25 mM HEPES pH7.5, 150 mM sodium chloride, 0.15 mM pyridoxal phosphate, 0.5 mM TCEP). Protein concentration was measured and calculated using the absorbance at 280 nm. Extracts were diluted 1 in 4 and 10 uL was analysed by SDS PAGE.
(§2) To measure BIO3-BIO1 mutant enzyme activity in the presence of herbicide, herbicides were incubated with 20 μL of enzyme mix (100 mM EPPS pH 8.6, 0.1 mM pyridoxal phosphate, 0.1 mg/mL BSA, 50 nM BIO3-BIO1 enzyme) for 10 minutes at 20° C. in a well of a 96-well half-area black plate, followed by the addition of 20 μL of substrate mix (final concentration of 100 mM EPPS pH 8.6, 0.1 mM pyridoxal phosphate, 0.1 mg/mL BSA, 100 μM spermidine, 20 μM KAPA, 100 mM NaCO3) and further incubation for 75 minutes at 20° C. The reaction was terminated by the addition of 50 μL of derivatisation mix (final concentration of 250 mM borate NaOH pH 9.4, 3.6 mM o-phthalaldehyde, 7 mM β-mercaptoethanol, 17% (v/v) ethanol, 3.6% (v/v) methanol). The fluorescent product produced by the reaction of DAPA with o-phthalaldehyde and 7 mM β-mercaptoethanol was measured at 470 nm after excitation at 410 nm.
(§3) For IC50 calculations, appropriate dose responses of compounds L, M, B, K and G were used. Calculated percentage inhibitions were then input into GraphPad Prism 7 and IC50s calculated using the non-linear regression (vs. normalised response) equation.

[2] = target: T2, Arabidopsis thaliana BioDA variant enzymes (Arabidopsis thaliana, UniProt B0F481); assay: biochemical; settings: WT Arabidopsis thaliana BioDA (SEQ ID NO 294); read-out: IC50
T2 construct: with the predicted N-terminal mitochondrial transit peptide removed; 6xHis-tag (N); thrombin cleavage site (N); made in house; host or cells: E. coli BL21 (DE3) bioA
Description: as §1, §2, §3

[3] = tested on: D4539 (Escherichia coli MTP BioA) containing tobacco plants; assay: Visual herbicide damage score on transgenic tobacco D4539 (pBin TMV MTP EcBioA); type: in vivo; settings: 600 gai/ha
Excerpt: In order to determine if the overexpressed gene detailed in Example 3 confers resistance to BIO3-BIO1 inhibiting compounds when expressed in plants, GM tobacco lines were produced and tested with BIO3-BIO1 inhibiting compounds. Transgenic tobacco plants expressing the Escherichia coli BioA gene with (SEQ ID NO:203) and without a mitochondrial signal peptide (SEQ ID NO: 202).
Populations of transgenic tobacco comprising 20-30 transgenic events per plant transformation constructs were generated as described in Example 1. These lines were clonally propagated and 1 clone per event was sprayed with 600 g ai/ha compound L or A+0.2% Genapol X080 with a spray volume of 200 L/Ha (“g ai/ha” refers to grams of active compound per hectare).
[…] A score of 0 indicates no visible damage or stunting whereas a score of 100 indicates a complete death of the plant. 20 transgenic events (i.e. individual transgenic plants) from each GM tobacco line were transplanted to soil 1 week prior to spraying with BIO3-BIO1 inhibiting compounds. WT tobacco was included as a control.

T1 sequence (B0F481 24-833 C388D): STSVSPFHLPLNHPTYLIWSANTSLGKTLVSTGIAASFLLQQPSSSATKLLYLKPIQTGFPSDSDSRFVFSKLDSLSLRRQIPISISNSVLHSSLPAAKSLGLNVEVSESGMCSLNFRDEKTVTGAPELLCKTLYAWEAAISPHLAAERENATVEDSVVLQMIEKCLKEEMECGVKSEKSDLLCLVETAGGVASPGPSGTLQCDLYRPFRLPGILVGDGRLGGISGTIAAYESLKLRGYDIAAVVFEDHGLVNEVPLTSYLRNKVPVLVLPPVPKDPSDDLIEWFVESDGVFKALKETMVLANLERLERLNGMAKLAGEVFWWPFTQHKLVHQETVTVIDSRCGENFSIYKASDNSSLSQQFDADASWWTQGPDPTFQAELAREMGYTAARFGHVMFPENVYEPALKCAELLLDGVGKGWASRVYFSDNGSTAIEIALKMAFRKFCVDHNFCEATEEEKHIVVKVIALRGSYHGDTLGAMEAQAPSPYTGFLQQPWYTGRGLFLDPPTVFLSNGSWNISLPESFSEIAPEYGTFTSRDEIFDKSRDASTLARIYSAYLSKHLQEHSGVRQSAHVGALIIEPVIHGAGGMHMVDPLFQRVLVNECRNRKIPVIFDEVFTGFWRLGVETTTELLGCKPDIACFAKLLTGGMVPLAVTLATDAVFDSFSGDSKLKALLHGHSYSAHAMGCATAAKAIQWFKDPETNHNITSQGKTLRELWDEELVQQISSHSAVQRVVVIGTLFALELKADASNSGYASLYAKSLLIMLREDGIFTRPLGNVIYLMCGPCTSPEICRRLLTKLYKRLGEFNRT

CC(O)C(N)CCCCC(=O)O.Cl (centres unmarked) [Compound B, [5-carboxy-1-(1-hydroxyethyl)pentyl]ammonium chloride]
IC50 [1]: 29.2 µM | IC50 [2]: 2.81 µM

CCOC(=O)c1nn(-c2ccc3c(c2)OC(F)(F)C(F)(F)O3)c2cccc(C(C)=O)c2c1=O [Compound A, ethyl 5-acetyl-4-oxo-1-(2,2,3,3-tetrafluoro-1,4-benzodioxin-6-yl)cinnoline-3-carboxylate]
percentage of damage (herbicide damage score) ([3]; D4539 event 8385, 7 DAT): 5% | percentage of damage (herbicide damage score) ([3]; D4539 event 8385, 14 DAT): 0% | percentage of damage (herbicide damage score) ([3]; D4539 event 8385, 21 DAT): 0% | percentage of damage (herbicide damage score) ([3]; D4539 event 8386, 7 DAT): 3% | percentage of damage (herbicide damage score) ([3]; D4539 event 8386, 14 DAT): 0% | percentage of damage (herbicide damage score) ([3]; D4539 event 8386, 21 DAT): 0% | percentage of damage (herbicide damage score) ([3]; D4539 event 8399, 7 DAT): 2% | percentage of damage (herbicide damage score) ([3]; D4539 event 8399, 14 DAT): 0% | percentage of damage (herbicide damage score) ([3]; D4539 event 8399, 21 DAT): 0% | percentage of damage (herbicide damage score) ([3]; D4539 event 8402, 7 DAT): 2% | percentage of damage (herbicide damage score) ([3]; D4539 event 8402, 14 DAT): 0% | percentage of damage (herbicide damage score) ([3]; D4539 event 8402, 21 DAT): 0% | percentage of damage (herbicide damage score) ([3]; D4539 event 8414, 7 DAT): 7% | percentage of damage (herbicide damage score) ([3]; D4539 event 8414, 14 DAT): 30% | percentage of damage (herbicide damage score) ([3]; D4539 event 8414, 21 DAT): 35% | percentage of damage (herbicide damage score) ([3]; D4539 event 8415, 7 DAT): 7% | percentage of damage (herbicide damage score) ([3]; D4539 event 8415, 14 DAT): 0% | percentage of damage (herbicide damage score) ([3]; D4539 event 8415, 21 DAT): 0% | percentage of damage (herbicide damage score) ([3]; D4539 event 8417, 7 DAT): 2% | percentage of damage (herbicide damage score) ([3]; D4539 event 8417, 14 DAT): 5% | percentage of damage (herbicide damage score) ([3]; D4539 event 8417, 21 DAT): 10% | percentage of damage (herbicide damage score) ([3]; D4539 event 8418, 7 DAT): 4% | percentage of damage (herbicide damage score) ([3]; D4539 event 8418, 14 DAT): 10% | percentage of damage (herbicide damage score) ([3]; D4539 event 8418, 21 DAT): 20% | percentage of damage (herbicide damage score) ([3]; D4539 event 8423, 7 DAT): 2% | percentage of damage (herbicide damage score) ([3]; D4539 event 8423, 14 DAT): 20% | percentage of damage (herbicide damage score) ([3]; D4539 event 8423, 21 DAT): 30% | percentage of damage (herbicide damage score) ([3]; D4539 event 8424, 7 DAT): 55% | percentage of damage (herbicide damage score) ([3]; D4539 event 8424, 14 DAT): 80% | percentage of damage (herbicide damage score) ([3]; D4539 event 8424, 21 DAT): 85% | percentage of damage (herbicide damage score) ([3]; D4539 event 8426, 7 DAT): 2% | percentage of damage (herbicide damage score) ([3]; D4539 event 8426, 14 DAT): 0% | percentage of damage (herbicide damage score) ([3]; D4539 event 8426, 21 DAT): 0% | percentage of damage (herbicide damage score) ([3]; D4539 event 8433, 7 DAT): 4% | percentage of damage (herbicide damage score) ([3]; D4539 event 8433, 14 DAT): 0% | percentage of damage (herbicide damage score) ([3]; D4539 event 8433, 21 DAT): 0% | percentage of damage (herbicide damage score) ([3]; D4539 event 8434, 7 DAT): 4% | percentage of damage (herbicide damage score) ([3]; D4539 event 8434, 14 DAT): 5% | percentage of damage (herbicide damage score) ([3]; D4539 event 8434, 21 DAT): 15% | percentage of damage (herbicide damage score) ([3]; D4539 event 8438, 7 DAT): 10% | percentage of damage (herbicide damage score) ([3]; D4539 event 8438, 14 DAT): 75% | percentage of damage (herbicide damage score) ([3]; D4539 event 8438, 21 DAT): 65% | percentage of damage (herbicide damage score) ([3]; D4539 event 8439, 7 DAT): 2% | percentage of damage (herbicide damage score) ([3]; D4539 event 8439, 14 DAT): 10% | percentage of damage (herbicide damage score) ([3]; D4539 event 8439, 21 DAT): 0% | percentage of damage (herbicide damage score) ([3]; D4539 event 8447, 7 DAT): 2% | percentage of damage (herbicide damage score) ([3]; D4539 event 8447, 14 DAT): 0% | percentage of damage (herbicide damage score) ([3]; D4539 event 8447, 21 DAT): 0% | percentage of damage (herbicide damage score) ([3]; D4539 event 8448, 7 DAT): 2% | percentage of damage (herbicide damage score) ([3]; D4539 event 8448, 14 DAT): 0% | percentage of damage (herbicide damage score) ([3]; D4539 event 8448, 21 DAT): 0% | percentage of damage (herbicide damage score) ([3]; D4539 event 8460, 7 DAT): 3% | percentage of damage (herbicide damage score) ([3]; D4539 event 8460, 14 DAT): 0% | percentage of damage (herbicide damage score) ([3]; D4539 event 8460, 21 DAT): 0% | percentage of damage (herbicide damage score) ([3]; D4539 event 8461, 7 DAT): 15% | percentage of damage (herbicide damage score) ([3]; D4539 event 8461, 14 DAT): 80% | percentage of damage (herbicide damage score) ([3]; D4539 event 8461, 21 DAT): 85% | percentage of damage (herbicide damage score) ([3]; D4539 event 8462, 7 DAT): 2% | percentage of damage (herbicide damage score) ([3]; D4539 event 8462, 14 DAT): 0% | percentage of damage (herbicide damage score) ([3]; D4539 event 8462, 21 DAT): 0%
